This passage reports IC50 results from US10851073B2, “Protein tyrosine phosphatase inhibitors and methods of use thereof” (Calico Life Sciences LLC, priority 2019, dated 2020).

For the first assay, the target named is T1, His tagged PTPN2 (TC45) protein (Homo sapiens, UniProt P17706).
T1 construct: made in house
T1 sequence (P17706 with tags, fused parts or gaps isoform P17706-2): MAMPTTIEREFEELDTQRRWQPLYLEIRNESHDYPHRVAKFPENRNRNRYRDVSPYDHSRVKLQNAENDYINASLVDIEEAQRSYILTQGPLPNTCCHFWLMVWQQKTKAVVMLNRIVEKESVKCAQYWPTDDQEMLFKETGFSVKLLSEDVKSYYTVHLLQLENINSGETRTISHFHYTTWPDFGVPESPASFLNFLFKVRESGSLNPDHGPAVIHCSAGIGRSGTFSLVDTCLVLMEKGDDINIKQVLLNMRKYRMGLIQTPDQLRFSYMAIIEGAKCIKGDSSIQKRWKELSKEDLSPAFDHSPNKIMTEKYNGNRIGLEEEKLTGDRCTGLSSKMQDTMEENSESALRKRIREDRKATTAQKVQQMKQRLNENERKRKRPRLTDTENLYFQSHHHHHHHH
As to the kind of experiment: Mobility shift assay used to determine potency of PTPN2 inhibitors. The format is biochemical. The note with it: enzyme 0.5 nM, substrate 2 μM; read-out: PTPN2 MSA IC50. The method, then:
Example 227: Mobility Shift Assay Used to Determine Potency of PTPN2 Inhibitors
Compound activity was determined using in house His tagged PTPN2 (TC45) protein (SEQ ID NO: 1) in an in vitro enzymatic reaction. The enzymatic assay used to determine activity was a mobility shift assay using a LabChip EZ Reader by Caliper Life Sciences. The enzymatic reaction was carried out in assay buffer (50 mM HEPES pH 7.5, 1 mM EGTA, 10 mM EDTA, 0.01% Tween® 20, and 2 mM DTT). The compounds were dispensed on a white 384 well ProxiPlate™ (PerkinElmer Catalog #6008289) plate using the Labcyte Echo at varying concentrations (12 point, 1:3 dilution). The enzyme (at 0.5 nM) was incubated with compound for 10 minutes at room temperature. Then the substrate (phosphorylated insulin receptor probe sequence: ((OG488)-(NH—CH2—CH2—O—CH2—CH2—O—CH2—CO)-T-R-D-I-(PY)-E-T-D-Y-Y-R-K-K-NH2) (SEQ ID NO: 2) was added at 2 μM to the plates and incubated for another 10 minutes at room temperature. Finally, a quench solution (water and 4-bromo-3-(2-oxo-2-propoxyethoxy)-5-(3-{[1-(phenylmethanesulfonyl)piperidin-4-yl]amino}phenyl)thiophene-2-carboxylic acid) was added to the plates, which were then run on the EZ Reader (excitation 488 nm, emission 530 nm) to measure % conversion (the amount of phosphorylated substrate which was de-phosphorylated by PTPN2). […] The % inhibition was then used to calculate the IC50 values.
For orientation: IC50 means the concentration that inhibits the measured activity by half. Consider `NCC1Cc2cc(O)c(N3CC(=O)NS3(=O)=O)c(F)c2C1` (stereo not shown) [Compound 267, 5-[2-(aminomethyl)-4-fluoro-6-hydroxy-2,3-dihydro-1H-inden-5-yl]-1λ^6,2,5-thiadiazolidine-1,1,3-trione 2,2,2-trifluoroacetate], for which the half-inhibitory concentration (IC50) lay within 0.01 to 0.1 µM.
Same read-out and setting: the same measure for `COC(CCNC1CCc2cc(O)c(N3CC(=O)NS3(=O)=O)c(F)c2C1)C(F)(F)F` (stereo not shown) [Compound 152, 5-{1-fluoro-3-hydroxy-7-[(4,4,4-trifluoro-3-methoxybutyl)amino]-5,6,7,8-tetrahydronaphthalen-2-yl}-1λ^6,2,5-thiadiazolidine-1,1,3-trione]: 0.001 to 0.01 µM; for `CC(C)CCCC1CCc2cc(O)c(N3CC(=O)NS3(=O)=O)c(F)c2C1` (stereo not shown) [Compound 323, 5-[1-fluoro-3-hydroxy-7-(4-methylpentyl)-5,6,7,8-tetrahydronaphthalen-2-yl]-1λ^6,2,5-thiadiazolidine-1,1,3-trione]: 0.001 to 0.01 µM.
Take `O=C1CN(c2c(O)cc3c(c2F)CN(C(=O)NCC2CCCO2)CC3)S(=O)(=O)N1` (stereo not shown) [Compound 263, 8-fluoro-6-hydroxy-N-[(oxolan-2-yl)methyl]-7-(1,1,4-trioxo-1λ^6,2,5-thiadiazolidin-2-yl)-3,4-dihydroisoquinoline-2(1H)-carboxamide]: the IC50 was in the range of 0.01 to 0.1 µM.
On the same count and under the same terms, the same measure for `O=C1CN(c2c(O)cc3c(c2F)CC(NCCOC(F)(F)F)CC3)S(=O)(=O)N1` (stereo not shown) [Compound 169, 5-(1-fluoro-3-hydroxy-7-{[2-(trifluoromethoxy)ethyl]amino}-5,6,7,8-tetrahydronaphthalen-2-yl)-1λ^6,2,5-thiadiazolidine-1,1,3-trione]: 0.01 to 0.1 µM; for `O=C1CN(c2c(O)cc3c(c2F)CC(NCC2CC2)CC3)S(=O)(=O)N1` (stereo not shown) [Compound 103, 5-{7-[(cyclopropylmethyl)amino]-1-fluoro-3-hydroxy-5,6,7,8-tetrahydronaphthalen-2-yl}-1λ^6,2,5-thiadiazolidine-1,1,3-trione]: 0.01 to 0.1 µM.

A further assay relates to B16F10 mouse melanoma cells. As to the kind of experiment: B16F10 IFNγ-induced cellular growth inhibition assay. The note with it: B16-F10, with 0.5 ng/mL IFNγ, read-out: B16F10 GI IC50. Type of assay: cell-based. The method, then: Example 229: B16F10 IFNγ-Induced Cellular Growth Inhibition Assay B16F10 mouse melanoma cells (ATCC Cat^# CRL-6475, Manassas, Va.) were seeded at a density of 500 cells per well in a 384-well clear bottom plate (Corning Cat^#3765, Corning, N.Y.) in 25 μL total volume of DMEM+10% FBS (Sigma Cat^# D6429 and Sigma Cat^# F4135, St. Louis, Mo.). Cells were allowed to adhere overnight at 37° C.+5% CO2. On the following day, 12.5 μL of mouse IFNγ (RD systems Cat^#485-MI/CF, Minneapolis, Minn.) was added to half of the plate (columns 13-24) at a concentration of 2 ng/mL for a final assay concentration of 0.5 ng/mL of IFNγ. Media only (12.5 μL of DMEM+10% FBS) was added to the remainder of the plate (columns 1-12). Next, compounds resuspended in DMSO (Sigma Cat^# D2650) at 100 mM were diluted in semi-log dilutions in DMSO ranging from 100 mM to 0.001 mM and DMSO only controls were included. The compound/DMSO dilutions were further diluted 1:250 in DMEM+10% FBS, and 12.5 μL of these dilutions were added in triplicates to cells of both treatment arms (with and without IFNγ). Final compound concentrations ranged from 100 μM to 0.001 μM with a final DMSO concentration of 0.1%. Compounds were only dosed in the inner 240 wells, avoiding the outer 2-well perimeter of the plate to minim/ze edge effects. Finally, the plate was loaded into an IncuCyte® S3 Live Cell Analysis System (Essen Bioscience-Sartorius, Ann Arbor, Mich.) maintained in a 37° C.+5% CO2 incubator, allowed to equilibrate for 2 hours, and imaged every 6 hours for 5 days. Confluence over time for compound dilutions in the presence and absence of IFNγ was measured. Growth inhibition values were obtained when the “DMSO/no IFNγ” control reached confluence >95%. At these time points, for each compound the percent growth inhibition at every compound dose level was calculated relative to the “DMSO/with IFNγ” control and used to determine the IC50.
As for `O=C1CN(c2c(O)cc3c(c2F)CN(CCCC2CCOCC2)CC3)S(=O)(=O)N1` [Compound 196, 5-{8-fluoro-6-hydroxy-2-[3-(oxan-4-yl)propyl]-1,2,3,4-tetrahydroisoquinolin-7-yl}-1λ^6,2,5-thiadiazolidine-1,1,3-trione], the IC50 lay within 1 to 10 µM.
The same measure, in the same setting: with `CC(C)(C)OC(=O)N1CCc2cc(O)c(N3CC(=O)NS3(=O)=O)c(F)c2C1` [Compound 221, tert-butyl 8-fluoro-6-hydroxy-7-(1,1,4-trioxo-1λ^6,2,5-thiadiazolidin-2-yl)-3,4-dihydroisoquinoline-2(1H)-carboxylate] the figure was 1 to 10 µM.
The same measure, in the same setting: with `O=C1CN(c2c(O)cc3c(c2F)CC(NCCOC(F)(F)F)CC3)S(=O)(=O)N1` (stereo not shown) [Compound 169, 5-(1-fluoro-3-hydroxy-7-{[2-(trifluoromethoxy)ethyl]amino}-5,6,7,8-tetrahydronaphthalen-2-yl)-1λ^6,2,5-thiadiazolidine-1,1,3-trione] the figure was 10 to 100 µM; with `O=C1CN(c2c(O)cc3c(c2F)CCCO3)S(=O)(=O)N1` [Compound 111, 5-(5-fluoro-7-hydroxy-3,4-dihydro-2H-1-benzopyran-6-yl)-1λ^6,2,5-thiadiazolidine-1,1,3-trione], 10 to 100 µM.
The same measure, in the same setting: with `CC1(C)CCc2c(cc(O)c(N3CC(=O)NS3(=O)=O)c2F)O1` [Compound 112, 5-(5-fluoro-7-hydroxy-2,2-dimethyl-3,4-dihydro-2H-1-benzopyran-6-yl)-1λ^6,2,5-thiadiazolidine-1,1,3-trione] the figure was 10 to 100 µM; with `O=C1CN(c2c(O)cc3c(c2F)CN(CCN2CCNCC2)CC3)S(=O)(=O)N1` [Compound 247, 5-{8-fluoro-6-hydroxy-2-[2-(piperazin-1-yl)ethyl]-1,2,3,4-tetrahydroisoquinolin-7-yl}-1λ^6,2,5-thiadiazolidine-1,1,3-trione], 10 to 100 µM; with `Cc1noc(C)c1CN1CCc2cc(O)c(N3CC(=O)NS3(=O)=O)c(F)c2C1` [Compound 208, 5-{2-[(3,5-dimethyl-1,2-oxazol-4-yl)methyl]-8-fluoro-6-hydroxy-1,2,3,4-tetrahydroisoquinolin-7-yl}-1λ^6,2,5-thiadiazolidine-1,1,3-trione], 10 to 100 µM.
For the compound `O=C1CN(c2c(O)cc3c(c2F)CC(NCC2CC2)CC3)S(=O)(=O)N1` (stereo not shown) [Compound 103, 5-{7-[(cyclopropylmethyl)amino]-1-fluoro-3-hydroxy-5,6,7,8-tetrahydronaphthalen-2-yl}-1λ^6,2,5-thiadiazolidine-1,1,3-trione], the IC50 is 1 to 10 µM.
Still for that read-out and setting: with `Cc1noc(C)c1CCN1Cc2c(cc(O)c(N3CC(=O)NS3(=O)=O)c2F)C(F)(F)C1` [Compound 306, 5-{2-[2-(3,5-dimethyl-1,2-oxazol-4-yl)ethyl]-4,4,8-trifluoro-6-hydroxy-1,2,3,4-tetrahydroisoquinolin-7-yl}-1λ^6,2,5-thiadiazolidine-1,1,3-trione] the figure was > 100 µM.
Same read-out and setting: with `CC(C)CCCN1CCc2cc(O)c(N3CC(=O)NS3(=O)=O)c(F)c2C1` [Compound 145, 5-[8-fluoro-6-hydroxy-2-(4-methylpentyl)-1,2,3,4-tetrahydroisoquinolin-7-yl]-1λ^6,2,5-thiadiazolidine-1,1,3-trione] the figure was 1 to 10 µM; with `Cn1cc(CCN2CCc3cc(O)c(N4CC(=O)NS4(=O)=O)c(F)c3C2)cn1` [Compound 252, 5-{8-fluoro-6-hydroxy-2-[2-(1-methyl-1H-pyrazol-4-yl)ethyl]-1,2,3,4-tetrahydroisoquinolin-7-yl}-1λ^6,2,5-thiadiazolidine-1,1,3-trione], 10 to 100 µM; with `Cc1n[nH]c(C)c1CCN1CCc2cc(O)c(N3CC(=O)NS3(=O)=O)c(F)c2C1` [Compound 194, 5-{2-[2-(3,5-dimethyl-1H-pyrazol-4-yl)ethyl]-8-fluoro-6-hydroxy-1,2,3,4-tetrahydroisoquinolin-7-yl}-1λ^6,2,5-thiadiazolidine-1,1,3-trione], 1 to 10 µM.
As to `O=C1CN(c2c(O)cc3c(c2F)C[C@H](NCCC2CC(F)(F)C2)CC3)S(=O)(=O)N1` [Compound 202, 5-[(7R)-7-{[2-(3,3-difluorocyclobutyl)ethyl]amino}-1-fluoro-3-hydroxy-5,6,7,8-tetrahydronaphthalen-2-yl]-1λ^6,2,5-thiadiazolidine-1,1,3-trione], the IC50 was < 1 µM.
On to `Cc1nn(C(F)F)c(C)c1CCN1CCc2cc(O)c(N3CC(=O)NS3(=O)=O)c(F)c2C1` [Compound 238, 5-(2-{2-[1-(difluoromethyl)-3,5-dimethyl-1H-pyrazol-4-yl]ethyl}-8-fluoro-6-hydroxy-1,2,3,4-tetrahydroisoquinolin-7-yl)-1λ^6,2,5-thiadiazolidine-1,1,3-trione], for which the IC50 is 1 to 10 µM.
Still for that read-out and setting: with `O=C1CN(c2c(O)cc3c(c2F)CN(CCCN2CCOCC2)CC3)S(=O)(=O)N1` [Compound 229, 5-{8-fluoro-6-hydroxy-2-[3-(morpholin-4-yl)propyl]-1,2,3,4-tetrahydroisoquinolin-7-yl}-1λ^6,2,5-thiadiazolidine-1,1,3-trione] the figure was 1 to 10 µM; with `CC(C)OCCCN1CCc2cc(O)c(N3CC(=O)NS3(=O)=O)c(F)c2C1` [Compound 251, 5-(8-fluoro-6-hydroxy-2-{3-[(propan-2-yl)oxy]propyl}-1,2,3,4-tetrahydroisoquinolin-7-yl)-1λ^6,2,5-thiadiazolidine-1,1,3-trione], 1 to 10 µM.
